Laboratory results: ChEMBL document CHEMBL1201862, “PubChem BioAssay data set” (2004)
Several values for one entry are separate records, joined by “and”; a condition that tells them apart may be missing. Identical values can stand only once.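 Protocol summary: plate cells (96-well), add compound at 5 concentrations, incubate 48 h, interpolate endpoints linearly. At the GI50, growth is halved.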 Activity calls are given as the source filed them. Rule as the data show it: active = GI50 up to about 1.1 µM and inactive = higher.

Columns and labels:
Experiment in all cases: growth of human tumour cells (NCI), 48 h
SNB-75 = tested on: SNB-75
CAKI-1 = tested on: CAKI-1
HCC 2998 = tested on: HCC 2998
SW-620 = tested on: SW-620
KM12 = tested on: KM12
OVCAR-5 = tested on: OVCAR-5
NCI-H226 = tested on: NCI-H226
SK-OV-3 = tested on: SK-OV-3
TK-10 = tested on: TK-10
786-0 = tested on: 786-0
HCT-116 = tested on: HCT-116
MOLT-4 = tested on: MOLT-4
SR = tested on: SR
UO-31 = tested on: UO-31
SN12C = tested on: SN12C
NCI-H23 = tested on: NCI-H23
COLO 205 = tested on: COLO 205
A498 = tested on: A498
OVCAR-4 = tested on: OVCAR-4

Measured: GI50

Cn1nc2ccc3nccc(N(CCO)CCO)c3c2n1
inactive: SNB-75 > 100 µM | CAKI-1 > 100 µM | HCC 2998 > 100 µM | SW-620 > 100 µM | KM12 > 100 µM | OVCAR-5 > 100 µM | NCI-H226 > 100 µM | SK-OV-3 > 100 µM | TK-10 > 100 µM | 786-0 > 100 µM | HCT-116 > 100 µM | MOLT-4 > 100 µM | SR > 100 µM | UO-31 > 100 µM | SN12C > 100 µM | NCI-H23 > 100 µM | COLO 205 > 100 µM | A498 > 100 µM

COc1ccccc1CC(C)N (stereo unspecified)
inactive: SNB-75 > 100 µM | CAKI-1 > 100 µM | HCC 2998 > 100 µM | SW-620 > 100 µM | KM12 > 100 µM | OVCAR-5 > 100 µM | NCI-H226 > 100 µM | SK-OV-3 > 100 µM | TK-10 > 100 µM | 786-0 > 100 µM | HCT-116 > 100 µM | OVCAR-4 > 100 µM | UO-31 > 100 µM | SN12C > 100 µM | NCI-H23 > 100 µM | COLO 205 > 100 µM | A498 > 100 µM

CCN(CC)CC1CCCCCCCCCCC1=O (stereo unspecified)
inactive: SNB-75 42.3 µM | HCC 2998 > 100 µM | SW-620 > 100 µM | KM12 > 100 µM | OVCAR-5 > 100 µM | NCI-H226 > 100 µM | TK-10 > 100 µM | 786-0 > 100 µM | HCT-116 > 100 µM | MOLT-4 > 100 µM | OVCAR-4 > 100 µM | SR > 100 µM | UO-31 > 100 µM | SN12C > 100 µM | NCI-H23 > 100 µM | COLO 205 > 100 µM | A498 > 100 µM

CC(C)OP(=O)(OC(C)C)c1nc(-c2ccccc2)n(-c2ccc([N+](=O)[O-])cc2)n1
inactive: SNB-75 > 100 µM | CAKI-1 > 100 µM | HCC 2998 > 100 µM | SW-620 > 100 µM | KM12 > 100 µM | OVCAR-5 > 100 µM | NCI-H226 31.3 µM | SK-OV-3 > 100 µM | TK-10 > 100 µM | HCT-116 > 100 µM | MOLT-4 > 100 µM | OVCAR-4 > 100 µM | UO-31 > 100 µM | SN12C > 100 µM | NCI-H23 > 100 µM | COLO 205 > 100 µM | A498 > 100 µM

OC(CBr)C(O)C(O)C(O)CBr (stereo unspecified)
inactive: HCC 2998 > 100 µM and > 72.8 µM | SW-620 > 87.7 µM | KM12 > 100 µM and > 60 µM | OVCAR-5 > 57 µM | NCI-H226 > 100 µM and > 74.1 µM | SK-OV-3 > 55.1 µM and > 53.1 µM | TK-10 > 100 µM | 786-0 13.7 µM | OVCAR-4 > 100 µM and > 81.5 µM | SR > 100 µM | COLO 205 > 53.6 µM | A498 > 61.9 µM

O=C(NCCCOC(=O)CCCCCCCCC(=O)OCCCNC(=O)NC(=O)c1c[nH]c(=O)[nH]c1=O)NC(=O)c1c[nH]c(=O)[nH]c1=O
inactive: CAKI-1 > 100 µM | HCC 2998 > 100 µM | SW-620 > 100 µM | KM12 > 100 µM | OVCAR-5 > 100 µM | SK-OV-3 > 100 µM | TK-10 > 100 µM | 786-0 > 100 µM | HCT-116 > 100 µM | MOLT-4 > 100 µM | OVCAR-4 > 100 µM | SN12C > 100 µM | NCI-H23 45.1 µM | COLO 205 > 100 µM | A498 > 100 µM

COc1ccc(/C(Cl)=C(\C=O)c2ccc(Cl)c(Cl)c2)cc1
inactive: SNB-75 3.04 µM | CAKI-1 9.12 µM | SW-620 4.53 µM | NCI-H226 13.2 µM | SK-OV-3 30.6 µM | TK-10 18 µM | HCT-116 3.83 µM | MOLT-4 2.6 µM | UO-31 12.8 µM | SN12C 7.1 µM | NCI-H23 4.4 µM | COLO 205 18.8 µM | A498 20.4 µM

C/C(=N/NC(=O)CC(=O)N(C(=O)c1ccccc1Cl)c1ccc(C)cc1)c1cc2ccccc2oc1=O
inactive: SNB-75 31 µM | CAKI-1 > 100 µM | HCC 2998 > 100 µM | SW-620 > 100 µM | KM12 > 100 µM | OVCAR-5 > 100 µM | NCI-H226 > 100 µM | TK-10 95.5 µM | 786-0 > 100 µM | HCT-116 > 100 µM | OVCAR-4 > 100 µM | SR 6.11 µM | UO-31 > 100 µM | SN12C > 100 µM | NCI-H23 45.5 µM | COLO 205 > 100 µM | A498 > 100 µM

O=C(Nc1ccc(/N=N/c2ccccc2)cc1)Sc1ccccc1C(=O)O
inactive: SNB-75 > 100 µM | CAKI-1 > 100 µM | HCC 2998 > 100 µM | SW-620 > 100 µM | KM12 > 100 µM | OVCAR-5 > 100 µM | NCI-H226 > 100 µM | TK-10 > 100 µM | 786-0 > 100 µM | HCT-116 57.1 µM | MOLT-4 > 100 µM | OVCAR-4 > 100 µM | SR > 100 µM | UO-31 > 100 µM | SN12C > 100 µM | NCI-H23 > 100 µM | COLO 205 > 100 µM | A498 > 100 µM

CC(=O)NC1CC2Oc3ccc(C)cc3C(C)(O2)C1O (stereo unspecified)
inactive: SNB-75 > 100 µM | SW-620 > 100 µM | KM12 > 100 µM | NCI-H226 > 100 µM | SK-OV-3 > 100 µM | TK-10 > 100 µM | 786-0 > 100 µM | HCT-116 > 100 µM | MOLT-4 > 100 µM | UO-31 > 100 µM | SN12C > 100 µM | NCI-H23 > 100 µM | COLO 205 > 100 µM

CC(=O)O/C=C(/C=C/OC(C)=O)C(C/C=C(\C)C#CC=C(C)C)OC(C)=O (stereo unspecified)
inactive: CAKI-1 > 100 µM | HCC 2998 > 100 µM | SW-620 42.3 µM | KM12 23.1 µM | OVCAR-5 > 100 µM | NCI-H226 > 100 µM | SK-OV-3 > 100 µM | TK-10 > 100 µM | 786-0 36.6 µM | HCT-116 18.3 µM | MOLT-4 21.1 µM | OVCAR-4 38.4 µM | UO-31 58.2 µM | SN12C 36.6 µM | NCI-H23 38.6 µM | COLO 205 27.9 µM | A498 > 100 µM

O=S(OC12CC3CC(CC(C3)C1)C2)c1cc(Cl)cc(Cl)c1OCc1ccccc1 (stereo unspecified)
inactive: SNB-75 > 100 µM | HCC 2998 > 100 µM | KM12 > 100 µM | OVCAR-5 > 100 µM | SK-OV-3 > 100 µM | TK-10 > 100 µM | HCT-116 > 100 µM | MOLT-4 > 100 µM | OVCAR-4 > 100 µM | SR > 100 µM | UO-31 > 100 µM | SN12C > 100 µM | NCI-H23 > 100 µM | A498 > 100 µM

FC(F)(F)c1ccc2c(c1)N(CCCNCCN1CCOCC1)c1ccccc1S2
inactive: SNB-75 7.13 µM | HCC 2998 2.23 µM | SW-620 10.2 µM | KM12 11.6 µM | OVCAR-5 11.3 µM | SK-OV-3 > 10 µM | TK-10 12.7 µM | HCT-116 3.17 µM | MOLT-4 4.74 µM | SR 6.32 µM | UO-31 3.83 µM | SN12C 13.3 µM | NCI-H23 12.3 µM | COLO 205 2.37 µM | A498 17.9 µM

CCOC(=O)C(=C=C=C(c1ccccc1)c1ccccc1)C(=O)OCC
inactive: SNB-75 3.87 µM | HCC 2998 25 µM | SW-620 21.5 µM | KM12 19.6 µM | OVCAR-5 18.1 µM | NCI-H226 15.5 µM | SK-OV-3 23.2 µM | TK-10 16 µM | 786-0 17.8 µM | HCT-116 18.5 µM | MOLT-4 9.08 µM | OVCAR-4 18.3 µM | UO-31 18.6 µM | SN12C 20.7 µM | NCI-H23 38.5 µM | COLO 205 16.7 µM | A498 48.4 µM

CCN(CC(=O)O)C(=O)c1cccnc1
inactive: SNB-75 > 100 µM | CAKI-1 > 100 µM | HCC 2998 > 100 µM | SW-620 > 100 µM | KM12 > 100 µM | OVCAR-5 > 100 µM | TK-10 > 100 µM | 786-0 > 100 µM | HCT-116 > 100 µM | MOLT-4 > 100 µM | OVCAR-4 > 100 µM | SR > 100 µM | UO-31 > 100 µM | SN12C > 100 µM | NCI-H23 > 100 µM | A498 > 100 µM

CCOC(=O)C1Nc2ccc([N+](=O)[O-])cc2[C@H]2OCC[C@@H]12 (stereo partly specified)
inactive: SNB-75 > 100 µM | CAKI-1 > 100 µM | HCC 2998 > 100 µM | SW-620 > 100 µM | KM12 > 100 µM | OVCAR-5 > 100 µM | NCI-H226 > 100 µM | SK-OV-3 > 100 µM | TK-10 > 100 µM | 786-0 > 100 µM | HCT-116 > 100 µM | MOLT-4 > 100 µM | OVCAR-4 > 100 µM | SN12C > 100 µM | NCI-H23 > 100 µM | COLO 205 > 100 µM | A498 > 100 µM

CC1NCCc2c1[nH]c1cc(O)ccc21 (stereo unspecified)
inactive: SNB-75 > 100 µM | CAKI-1 > 100 µM | HCC 2998 > 100 µM | SW-620 > 100 µM | KM12 > 100 µM | OVCAR-5 > 100 µM | NCI-H226 > 100 µM | SK-OV-3 > 100 µM | TK-10 > 100 µM | 786-0 > 100 µM | HCT-116 > 100 µM | MOLT-4 > 100 µM | OVCAR-4 > 100 µM | UO-31 > 100 µM | SN12C > 100 µM | NCI-H23 > 100 µM | COLO 205 > 100 µM | A498 > 100 µM
